# Experimental data published in patent US9745345B2, “Anti-tumor polypeptides and method for preparing anti-tumor drugs comprisng the same” (priority 2013, dated 2017).
# Square brackets hold non-standard residues; d marks the D form. Ends that are not written are not given here. pS = N[C@@H](COP(=O)(O)O)C(=O)O; Ahx = NCCCCCC(=O)O
# Legend:
# SGC7901 cells [1] = experiment: Annexin V-PE/7-AAD flow cytometry of apoptosis in SGC7901 cells; format: cell-based
# Source text: Six groups with different treatment methods directed against SGC7901 cells were designed: blank control group; transfection Flag-control group; transfection Hag-JWA group; transfection Flag-JWA and ATO combined treatment group; ATO treatment group; and polypeptide CPP-1 and ATO combined treatment group. After 24 hrs of treatment for each group, Annexin V-PE/PI flow cytometry was used to examine apoptosis and Western Blot was used to detect the level of PARP-1. […]
# In normal cells, phosphatidyl serine (PS) are distributed on the inside of cell membrane lipid bilayer, and at the early stage of apoptosis the phosphatidyl serine (PS) in cell membranes is turned over from the inside of lipid membrane to the outside thereof. […] Annexin V was labeled with fluorescein phycoerythrin (PE); fluorescence microscopy or flow cytometry could be employed to examine apoptosis with the labeled Annexin V used as a fluorescent probe. […] Cells were divided into three group by the fluorescence intensity of 7-AAD labeling DNA: strong fluorescence of 7-AAD indicates dead cells, weak fluorescence of 7-AAD indicates apoptotic cells, and undetectable fluorescence of 7-AAD indicates normal active cells. […]
# SGC7901 cells [2] = experiment: Western Blot of PARP-1 in SGC7901 cells; format: cell-based; conditions: CPP-1 and ATO combined action group versus other groups
# Description: The combined effect of ATO and polypeptide JWA-6 on the self-destruction of protein expression was also determined A375 cells in the logarithmic phase of growth were conventionally digested and 5×10^5 cells were inoculated evenly in a 60 mm cell culture dish, and different doses of ATO were used to individually treat the cells for 24 hrs, or different doses of ATO in combination with different doses of polypeptide JWA-6 were used to treat the cells for 24 hrs, after which 0.18 mL of RIPA lysis buffer containing 0.5% phenylmethanesulfonyl fluoride (PMSF) was added to extract protein. After centrifugation at 12000×g for 15 minutes, the supernatant was taken, protein concentration was examined. Based on the molecular weight measured, a polyacrylamide gel having a suitable concentration was chosen for protein electrophoresis where each well was added with […] of protein, and the conditions for electrolysis were 60 V, 30 minutes and 90 V, 1-1.5 hrs. After completion of the electrolysis, semi-dry transfer was performed to transfer the protein from the gel onto a polyvinylidene difluoride (PVDF) membrane. After completion of the transfer, the membrane was blocked with 5% skim milk at room temperature for 1-2 hrs. Then, the membrane was washed 3 times (each lasting 5 minutes) using Tris-buffered Saline with Tween (TBST) containing 0.1% Tween-20, and incubation of the corresponding antibody was performed overnight at 4° C. On the next day, membrane was washed 3 times (each lasting 5 minutes) using Tris-buffered Saline with Tween (TBST) containing 0.1% Tween-20; incubation of secondary antibody was performed at room temperature for 1-2 hrs; and again membrane was washed 8 times (each lasting 5 minutes) using Tris-buffered Saline with Tween (TBST) containing 0.1% Tween-20. The membrane was added with enhanced chemiluminescence (ECL) liquid and exposed. […]
# A375 cells [3] = experiment: Cytoactivity of A375 cells treated with ATO alone or with polypeptides in combination with ATO; format: cell-based, human
# Description: Firstly, the dose and time for treatment of A375 cells with ATO were determined. A375 cells in the logarithmic phase of growth were conventionally digested and seeded in a 96-well plate (5×10^3 cells/well), and different doses (5 μM, 10 μM, 25 μM, 50 μM) of ATO were used to treat the cells for 24 hrs and 48 hrs after cell attachment. It was discovered that the activity of A375 cells was reduced by 40% after 24 hrs of treatment with 5 μM ATO (as shown in FIG. 24), and that the cell growth inhibition rate was approximately 100% after 48 hrs of treatment with different doses of ATO (as shown in FIG. 25). Therefore, ATO with a concentration smaller than or equal to 5 μM was chosen to treat the cells for 24 hrs for subsequent reference of dose and time for combined medication.
# [4] = system: Human Melanoma A375 Cells; experiment: Cell proliferation with CCK8 reagent, A375 cells; format: cell-based; conditions: 0-50 μM, 24, 48 and 72 hrs, in comparison with the control group
# Description: (§1) B16F10 or A375 cells in the logarithmic phase of growth were trypsinized and seeded in a 96-well plate (5×10^3 cells/well), and were treated with different doses (0 μM, 5 μM, 10 μM, 25 μM, 50 μM) of polypeptide JWA-1, JWA-5, JWA-6 or non-pep (the polypeptide sequence used was the same as Example 3) for 24 hrs, 48 hrs and 72 hrs, respectively. The original culture medium was removed from the 96 wells at the indicated time and cell proliferation was determined with CCK8 reagent according to the manufacturer's instructions. Four duplicate samples were taken from each group and the experiments were repeated for three times.
# [5] = system: human melanoma A375 cells; experiment: Human melanoma A375 subcutaneous xenograft in NOD/SCID mice, intraperitoneal injection of polypeptides; format: in vivo; conditions: Example 5; 50 mg/kg intraperitoneal, alternate days, 5 times
# Source text: The polypeptide designed and synthesized in this example was JWA-6+RGD whose sequence was SEQ ID NO: 7, i.e. 6-aminocaproic acid-FPGSDRF-GGGG-RGD, wherein amino acid S was phosphorylated. In addition, the N-terminus of the polypeptide sequence was acetylated and the C-terminus thereof was amidated during synthesis to prevent rapid degradation of the polypeptide. In this example, non-obese diabetic/severe combined immunodeficiency (NOD/SCID) mice were chosen for tumor-bearing model and the method for dorsal subcutaneous tumor bearing by inoculation of human melanoma A375 cells is the same as Example 2. The mice were randomly divided into four treatment groups after the tumors grew to a volume of about 100 mm^3. […]
# Then, 50 mg/kg polypeptide JWA-6, 10 mg/kg polypeptide JWA-6+RGD, 50 mg/kg polypeptide JWA-6+RGD, and 50 mg/kg non-pep (the polypeptide sequence used was the same as Example 3) were injected intraperitoneally. The various groups were administered with injection on alternate days for 5 times consecutively; and the body weight of the mice and their tumor diameters were measured at each administration. After completion of the experiment the mice were sacrificed after anesthesia, tumors were separated from the bodies and the tumor weights measured.
# Thereafter, the tumor bearing mice were obtained using the foregoing method of this example and divided into seven injection groups which were intraperitoneally injected with polypeptides JWA-6+RGD, JWA-6+RGD0, JWA-6+RGD1, JWA-6+RGD3, JWA-6+RGD7, JWA-6+RGD10, and non-pep (the polypeptide sequence used was the same as Example 3) at a dose of 50 mg/kg. The various groups were administered by intraperitoneal injection on alternate days for 5 times consecutively; and the body weight of the mice and their tumor diameters were measured at each administration. The day of first administration was taken as the first day, and the experiment was stopped on the twelfth day when the mice were sacrificed after anesthesia, and tumors were separated from the bodies and the tumor weights were measured.
# B16 cells = experiment: Western Blot of PARP-1 in B16 cells; format: cell-based; conditions: JWA-6 in combination with ATO, 24 hrs
# [6] = system: Mouse Melanoma B16F10 Cells; experiment: Cell proliferation with CCK8 reagent, B16F10 cells; format: cell-based; conditions: 0-50 μM, 24, 48 and 72 hrs, in comparison with the control group
# Description: as §1
# A375 cells [7] = experiment: Western Blot of apoptosis-related molecules (PARP-1, caspase-3) in A375 cells; format: cell-based, human; conditions: JWA-6 in combination with ATO, 24 hrs; compared to untreated group and ATO alone
# Description: The combined effect of ATO and polypeptide JWA-6 on the self-destruction of protein expression was also determined A375 cells in the logarithmic phase of growth were conventionally digested and 5×10^5 cells were inoculated evenly in a 60 mm cell culture dish, and different doses of ATO were used to individually treat the cells for 24 hrs, or different doses of ATO in combination with different doses of polypeptide JWA-6 were used to treat the cells for 24 hrs, after which 0.18 mL of RIPA lysis buffer containing 0.5% phenylmethanesulfonyl fluoride (PMSF) was added to extract protein. After centrifugation at 12000×g for 15 minutes, the supernatant was taken, protein concentration was examined. Based on the molecular weight measured, a polyacrylamide gel having a suitable concentration was chosen for protein electrophoresis where each well was added with […] of protein, and the conditions for electrolysis were 60 V, 30 minutes and 90 V, 1-1.5 hrs. After completion of the electrolysis, semi-dry transfer was performed to transfer the protein from the gel onto a polyvinylidene difluoride (PVDF) membrane. After completion of the transfer, the membrane was blocked with 5% skim milk at room temperature for 1-2 hrs. Then, the membrane was washed 3 times (each lasting 5 minutes) using Tris-buffered Saline with Tween (TBST) containing 0.1% Tween-20, and incubation of the corresponding antibody was performed overnight at 4° C. On the next day, membrane was washed 3 times (each lasting 5 minutes) using Tris-buffered Saline with Tween (TBST) containing 0.1% Tween-20; incubation of secondary antibody was performed at room temperature for 1-2 hrs; and again membrane was washed 8 times (each lasting 5 minutes) using Tris-buffered Saline with Tween (TBST) containing 0.1% Tween-20. The membrane was added with enhanced chemiluminescence (ECL) liquid and exposed.
# Polypeptide CPP-JWA-6 at a dose of 20 μM, 50 μM was applied individually and applied in combination with ATO (5 μM) on A375 cells (as shown in FIG. 40) and SGC7901 cells (as shown in FIG. 41) for 24 hrs before protein was extracted, and the Western Blot method of Example 7 was used to examine the changes in apoptosis-related molecules.
# [8] = system: SGC7901 gastric cancer cell; experiment: Fluorescence of FITC-modified cell-penetrating peptides after entry into SGC7901 cells; format: cell-based; conditions: 20 μM, 3 hrs
# Source text: To enable JWA functional polypeptides to effectively penetrate into tumor cells, four typical CPPs: R9, TAT, pep-1, 2K (see Table 3), and a blank control having only JWA-1 were selected, the cell-penetrating peptide (CPP) with the highest cell-penetrating effect, its optimal action concentration and optimal action time were selected from the cell model.
# To facilitate the use of fluorescence microscopy to directly observe whether polypeptides have the ability to enter cells, the N-terminuses of the aforementioned sequences and JWA-1 were modified with fluorescein isothiocyanate (FITC) and the C-terminuses thereof were amidated.
substance,measurement,setting,value
6-aminocaproic acid-(R)9-FFPGSDRFA ([Ahx]RRRRRRRRRFFPG[pS]DRFA) [CPP-1],apoptosis rate,"SGC7901 cells [1]; 20 μM polypeptide 3 hrs, then 5 μM ATO 24 hrs (combined action group)",55.76%
same,expression of PARP-1 spliceosome,SGC7901 cells [2],higher than those of other groups
6-aminocaproic acid-FPGSDRF ([Ahx]FPG[pS]DRF) [JWA-6],"cytoactivity of A375 cells, combined use with ATO","A375 cells [3]; polypeptide 50-500 μM in combination with ATO 0.5-5 μM, 24 and 48 hrs",obvious toxicity
same,inhibition effect on A375 cells,[4],no inhibition effect
same,tumor inhibition effect,[5],a certain degree of tumor inhibition effect
same,changes of PARP-1,B16 cells,changes of PARP-1 were also seen
same,inhibition effect on B16F10 cells,[6],no inhibition effect
same,cleaved PARP-1,A375 cells [7],significantly increased
same,cleaved caspase-3,A375 cells [7],significantly increased
"6-aminocaproic acid-RRRRRRRRR ([Ahx]RRRRRRRRR) [R9, cell-penetrating peptide (CPP)]","fluorescence after entry into cells, differences between R9 group and other groups",[8],the most significant
"arsenic trioxide [ATO, reference compound]",activity of A375 cells reduced by,"A375 cells [3]; 5 μM ATO alone, 24 hrs",40%
same,cell growth inhibition rate,"A375 cells [3]; ATO alone, different doses (5, 10, 25, 50 μM), 48 hrs",approximately 100%
same,apoptosis rate,"SGC7901 cells [1]; pure ATO treatment group, 24 hrs",24.69%
